The test system of series [1] is Plasmodium falciparum 3D7 clone. Kind of series: In vitro antiplasmodial activity, parasite lactate dehydrogenase (pLDH) assay. The conditions noted are these: for viability at 10 µg/mL: 3D7, read-out: Viability % ± SD at 10 μg/mL; for viability at 50 µg/mL: 3D7, read-out: Viability % ± SD at 50 μg/mL. As to the method:
Malaria parasites (Plasmodium falciparum 3D7 clone) were maintained in an RPMI 1640 medium containing 2 mM L-glutamine and 25 mM Hepes (Lonza). The medium was further supplemented with 5% Albumax II, 20 mM glucose, 0.65 mM hypoxanthine, 60 µg/mL gentamycin, and 2–4% haematocrit human red blood cells. The parasites were cultured at 37 °C under an atmosphere of 5% CO2, 5% O2, and 90% N2 in a sealed T75 culture flask.
For the antiplasmodial activity, the extracts and isolated compounds were first tested at 50 µg/mL and 10 µg/mL in duplicate experiments. IC50 values determined from the dose-response curves were evaluated for the compounds only showing < 50% viability without cytotoxicity at 10 µg/mL. For the IC50 screening, a range of concentrations of the extracts and compounds starting from 100 µg/mL and extended by 3-fold serial dilution were tested in triplicate and standard deviations (SD) were derived where applicable. The parasite viability was determined by measuring the activity of parasite lactate dehydrogenase (pLDH) as described by Makler et al.. Serial dilutions of the extracts and compounds were added to the in vitro cultures of P. falciparum (3D7 clone) in 96-well plates (1% haematocrit, 2% parasitaemia) and incubated for 48 h. To 125 µL solutions containing a mixture of Malstat (0.18 M lactic acid, 0.13 mM 3-acetylpyridine adenine dinucleotide, 0.16% Triton X-100, and 44 mM Tris, pH 9) and NBT/PES (0.39 mM nitro blue tetrazolium and 0.05 mM phenazine ethosulfate), 20 µL of the incubated culture was then added in a fresh 96-well plate. […] The % parasite viability, as indicated by the pLDH activity in the treated wells compared with the untreated controls, was calculated from the absorbance values for each compound/extract. The parasitised RBCs in the absence of test compounds/drug were taken as the untreated control with 100% viability.

A further series relates to P. falciparum. The conditions noted are these: cited from earlier work.
Series [2] concerns HeLa (human cervix adenocarcinoma) cells. Kind of series: In vitro cytotoxicity, resazurin assay. It counts as cell-based. The following applies: for IC50: Homo sapiens, HeLa, positive control. How it is done:
(§1) The cytotoxicity of the compounds/extracts against HeLa (human cervix adenocarcinoma) cells (Cellonex, South Africa) was evaluated by plating the cells at a density of 2 × 10^4 cells per well in a DMEM medium supplemented with 10% foetal bovine serum and penicillin/streptomycin/amphotericin B antibiotics in 96-well plates. After incubating for 24 h at 37 °C in a humidified 5% CO2 incubator, the test samples were added at a final concentration of 50 µg/mL or 10 µg/mL to the cells in triplicate wells (final volume per well was 200 µL) and further incubated or 24 h. Subsequently, a 20 µL resazurin stock solution (0.6 mM resazurin in phosphate-buffered saline) was added to each well and, after a 4 h incubation, the fluorescence (Exc560/Emm590) was measured on a Spectramax M3 plate reader. The percentage cell viability in the treated wells relative to the wells containing the untreated control cells was calculated from the fluorescence values after subtracting the background readings obtained from the empty wells. Emetine was used as the positive control.

Series [3] in a line: In vitro cytotoxicity, resazurin assay. The following applies: human, 24 h; for viability at 24 h, 10 µg/mL: HeLa cell viability at 10 µg/mL, read-out: Viability % ± SD at 10 μg/mL; for viability at 24 h, 50 µg/mL: HeLa cell viability at 50 µg/mL, read-out: Viability % ± SD at 50 μg/mL. It counts as cell-based, human. How it is done: as §1
On the technique in general: Resazurin is reduced to fluorescent resorufin, in cell work by metabolically active cells.

Here are results for twelve compounds from paper PMC9033093, “Antiplasmodial Activity of Vachellia xanthophloea (Benth.) P.J.H. Hurter (African Fever Tree) and Its Constituents” (Pharmaceuticals, 2022).

“And” between values parts separate entries of the source, which are not always exact repeats. Identical values can stand only once. Like-named read-outs stand apart in the source and are kept apart here.

`O=C1c2c(O)cc(O)cc2O[C@H](c2ccc(O)c(O)c2)[C@H]1O` [Dihydroquercetin (6), dihydroquercetin]: the IC50 – broadly, the concentration needed to halve the response being measured – in series [1] (3D7, 48 h) is 27.6 µg/mL and 90.7 µM.
`O=c1cc(-c2ccc(O)cc2)oc2cc(O)cc(O)c12` [apigenin]: the “antiplasmodial activity of common dietary flavonoids (reported)” value (from here on “antiplasmodial activity … (reported)”) with P. falciparum is “moderate to weak antiplasmodial activity”.
On to `O=c1c(O)c(-c2ccc(O)c(O)c2)oc2cc(O)cc(O)c12` [quercetin], for which the “antiplasmodial activity … (reported)” value in the series on P. falciparum is “moderate to weak antiplasmodial activity”.
Consider `CC[C@H]1CN2CCc3cc(OC)c(OC)cc3[C@@H]2C[C@@H]1C[C@H]1NCCc2cc(OC)c(OC)cc21` [Emetine, reference compound], for which the IC50 in series [2] (printed in the 10 µg/mL column) amounted to 0.04 µM; in series [2] (printed in the 50 µg/mL column) it was 0.033 µM.
Regarding pinoresinol [Pinoresinol (12)], the “activity against P. falciparum (previously reported)” value with P. falciparum is “inactive”.
Consider `C[C@]1(O)CC[C@H]2[C@@H]3CCC4=CC(=O)CC[C@@H]4[C@H]3CC[C@@]21C` [lutenin, reference compound], for which the “antiplasmodial activity … (reported)” value in the series on P. falciparum is “moderate to weak antiplasmodial activity”.
`COc1c(-c2ccc(O)c(O)c2)oc2cc(O)cc(O)c2c1=O` [3-O-Methylquercetin (4), 3-O-methylquercetin]: in series [1], the viability at 10 µg/mL was 82.9 ± 3% and the viability at 50 µg/mL was 21.9 ± 1.5%. Also, in series [3] (HeLa cells), the viability at 24 h, 10 µg/mL worked out at 57.9 ± 5.2% and the viability at 24 h, 50 µg/mL was 4.5 ± 0.1%.
On to `Oc1cc(O)c2c(c1)O[C@H](c1cc(O)c(O)c(O)c1)[C@@H](O)C2` [gallocatechin (8), gallocatechin], for which the “activity against P. falciparum (previously reported)” value in the series on P. falciparum is “inactive”.
For `CCN(CC)CCCC(C)Nc1ccnc2cc(Cl)ccc12` (stereo not shown) [Chloroquine, reference compound], the IC50 in series [1] (3D7, 48 h) was 0.014 µM; in series [1] (3D7, read-out: IC50 values ranged) it was 0.01 to 0.05 µM.
On to `O=c1c(O)c(-c2ccc(O)cc2)oc2cc(O)cc(O)c12` [Kaempferol (10), kaempferol], for which the IC50 in series [1] (3D7, 48 h) was 25 µg/mL and 87.3 µM. Further, the “antiplasmodial activity … (reported)” value with P. falciparum is listed as “moderate to weak antiplasmodial activity”.
For the compound `COC(=O)c1cc(O)c(O)c(O)c1` [Methyl gallate (9), methyl gallate], in series [1] (3D7, 48 h), the IC50 was 1.2 µg/mL and 6.52 µM. Besides, in series [1], the viability at 10 µg/mL was found to be 26.9 ± 0.7% and the viability at 50 µg/mL was 17.7 ± 1.5%. In series [2] (HeLa cell viability at 10 µg/mL, 24 h), the “Viability % ± SD at 10 μg/mL” value worked out at 68.6 ± 2.0%. Also, in series [3], the viability at 24 h, 10 µg/mL is 68% and the viability at 24 h, 50 µg/mL was 2 ± 0.2%. Moreover, in the series with P. falciparum, the “antiplasmodial activity and selectivity (reported by other investigators)” value is recorded as “good selective antiplasmodial activity”; the combination with quinine entry was “act in synergy with quinine”.
On to `O=c1c(O)c(-c2cc(O)c(O)c(O)c2)oc2cc(O)cc(O)c12` [myricetin, reference compound], for which the “antiplasmodial activity … (reported)” value with P. falciparum was “moderate to weak antiplasmodial activity”.
